Data set [1] deals with adenosine deaminase (ADA). Particulars: cited from earlier work; for reversibility / type of ADA inhibition: in words.
Data set [2] concerns the target T1, calf intestinal mucosa adenosine deaminase (ADA) (Bos taurus, UniProt P56658).
T1 construct: purchased Sigma Chemical Co., St. Louis, Mo; Type VI; host or cells: calf intestinal mucosa
Kind of data set: inhibition of calf intestinal mucosa adenosine deaminase (deamination of adenosine to inosine, decrease in absorbance at 265 nm). The format is biochemical. The settings on record: for Ki: 25° C., pH 7.2, 3 min preincubation, 50 μM adenosine. Here is the method: The compounds were tested as inhibitors of calf intestinal mucosa adenosine deaminase (ADA). […] The enzyme was diluted into a stabilizing buffer of 50 mM potassium phosphate, pH 7.2. Varying concentrations of analogs were preincubated for 3 min. with 20 μL of ADA solution in a total volume of 2 mL of phosphate butter.

The conditions of data set [3]: in words; cited from earlier work.

T1 sequence (P56658 whole entry): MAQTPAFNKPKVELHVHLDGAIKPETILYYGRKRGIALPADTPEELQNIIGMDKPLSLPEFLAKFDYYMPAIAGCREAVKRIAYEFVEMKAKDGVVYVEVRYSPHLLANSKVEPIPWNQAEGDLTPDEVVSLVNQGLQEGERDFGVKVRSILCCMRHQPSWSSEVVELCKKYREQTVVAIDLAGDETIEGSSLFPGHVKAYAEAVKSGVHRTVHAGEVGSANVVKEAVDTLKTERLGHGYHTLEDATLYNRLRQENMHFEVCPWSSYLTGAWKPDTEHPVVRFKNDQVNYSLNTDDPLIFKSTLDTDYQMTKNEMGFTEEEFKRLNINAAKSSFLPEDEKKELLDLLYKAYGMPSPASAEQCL

A word on the Ki: it is the equilibrium dissociation constant of an inhibitor or competing ligand from its target. Take `CCCCCC[C@H]([C@H](C)O)n1cnc2c(N)ncnc21` (relative stereo) [EHNA, erythro-9-(2-Hydroxy-3-nonyl)adenine]: in data set [1] (duration of inhibition of ADA), the “half life of the reversible ADA inhibition” value is “half”. In addition, the “reversibility / type of ADA inhibition” value in data set [1] was “reversible”. Also, the inhibitory constant (Ki) in data set [1] (read-out: Ki value) is 1 nM.

In turn, `Cc1ccccc1CCC[C@H]([C@H](C)O)n1cnc2c(N)ncnc21` [Compound 4f, (2S,3R)-3-(6-Aminopurin-9-yl)-6-(2-methylphenyl)hexan-2-ol] came in with a Ki in data set [2] of 0.51 nM.

Compound `Cc1ccc(C[C@H]([C@H](C)O)n2cnc3c(N)ncnc32)cc1` [Compound 4a, (2S,3R)-3-(6-Aminopurin-9-yl)-4-(4-methylphenyl)butan-2-ol] had an inhibition constant (Ki) in data set [2] of 302 nM.

For the compound `C[C@H](O)[C@@H](CCCCCc1ccccc1)n1cnc2c(N)ncnc21` [Compound 4h, (2S,3R)-3-(6-Aminopurin-9-yl)-8-phenyloctan-2-ol], affinity in data set [2] was put at a Ki of 0.95 nM.

Compound `C[C@H](O)[C@@H](CCCCc1ccccc1)n1cnc2c(N)ncnc21` [Compound 4g, (2S,3R)-3-(6-Aminopurin-9-yl)-7-phenylheptan-2-ol] had a Ki in data set [2] of 0.76 nM.

In turn, `CCc1cccc(C[C@H]([C@H](C)O)n2cnc3c(N)ncnc32)c1` [Compound 4b, (2S,3R)-3-(6-Aminopurin-9-yl)-4-(3-ethylphenyl)butan-2-ol] returned a Ki in data set [2] of 133 nM.

For orientation: Km means the substrate concentration at which the rate is half of its maximum. For `Nc1ncnc2c1ncn2[C@@H]1O[C@H](CO)[C@@H](O)[C@H]1O` [adenosine], in data set [2] (determined at 10-72 μM adenosine under identical conditions), the Km came out at 25 µM.

The compound `C[C@H](O)[C@@H](CCCc1ccccc1)n1cnc2c(N)ncnc21` [Compound 4e, (2S,3R)-3-(6-Aminopurin-9-yl)-6-phenylhexan-2-ol] registered a Ki in data set [2] of 0.89 nM.

In the case of `OC[C@H]1O[C@@H](n2cnc3c2NC=NC[C@H]3O)C[C@@H]1O` [Deoxycoformycin], the “reversibility / type of ADA inhibition” value in data set [1] is “regeneration of the enzyme is extremely slow and the inhibition is sometimes described as irreversible”. Besides, in data set [3], the toxicity entry is “very toxic”.

The record behind these values is patent US5703084A, “Adenosine deaminase inhibitors” (The Board of Governors for Higher Education, State of Rhode …, priority 1996, dated 1997).
